In publication PMC7204527, “In Vitro Assessment of the Interaction Potential of Ocimum basilicum (L.) Extracts on CYP2B6, 3A4, and Rifampicin Metabolism” (Frontiers in Pharmacology, 2020):
Where “and” joins values, the source holds several entries; their conditions need not be identical. Equal entries are not always repeated. Structures can show the parent of a compound that is named as a salt.

What was measured:
CYP2B6 mRNA = CYP2B6 mRNA expression in HepG2 cells (RT-PCR, agarose gel); assay type: cell-based, human; conditions: HepG2, 10 μM, positive control, p < 0.001 vs cell control
CYP2B6 = target: T1, CYP2B6 (Homo sapiens, UniProt P20813); test: Michaelis-Menten kinetics of efavirenz metabolism in HLM
T1 sequence (P20813 1-491): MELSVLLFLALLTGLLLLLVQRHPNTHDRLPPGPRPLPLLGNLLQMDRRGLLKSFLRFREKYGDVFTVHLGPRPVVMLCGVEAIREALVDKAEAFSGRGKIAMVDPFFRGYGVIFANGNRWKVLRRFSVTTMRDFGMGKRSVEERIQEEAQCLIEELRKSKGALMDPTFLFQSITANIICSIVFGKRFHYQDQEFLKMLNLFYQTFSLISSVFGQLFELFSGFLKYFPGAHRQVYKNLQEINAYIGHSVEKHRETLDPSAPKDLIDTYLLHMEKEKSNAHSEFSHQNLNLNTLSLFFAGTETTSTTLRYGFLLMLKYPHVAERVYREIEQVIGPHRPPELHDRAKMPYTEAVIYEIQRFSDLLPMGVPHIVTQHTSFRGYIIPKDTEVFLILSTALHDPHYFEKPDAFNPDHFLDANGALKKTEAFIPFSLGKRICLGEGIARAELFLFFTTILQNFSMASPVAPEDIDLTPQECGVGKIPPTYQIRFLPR

CYP1A2 = system: CYP1A2; design: method as in Pan et al., 2014; conditions: ref Pan et al., 2014; cited from earlier work
[1] = system: HIV-1 Reverse Transcriptase (RT)-associated RNase H; design: method as in Sonar et al., 2017; conditions: in vitro, ref Sonar et al., 2017, cited from earlier work
β-esterases = test: Michaelis-Menten kinetics of rifampicin metabolism in HLM; assay type: in vitro ADME, human; conditions: pooled HLM
CYP3A enzymes = system: CYP3A enzymes; design: method as in Quintieri et al., 2008; conditions: ref Quintieri et al., 2008; cited from earlier work
[2] = target: T2, rifampicin metabolism (β-esterases) (Homo sapiens, UniProt P22760); test: HLM inhibition assay, rifampicin metabolism to 25-O-desacetyl rifampicin, two-point screening and IC50; assay type: in vitro ADME; conditions: liver microsomes, pH 7.4, two-point screening, 49.79 μg/ml, read-out: rifampicin metabolism activity reduced by
T2 sequence (P22760 1-399): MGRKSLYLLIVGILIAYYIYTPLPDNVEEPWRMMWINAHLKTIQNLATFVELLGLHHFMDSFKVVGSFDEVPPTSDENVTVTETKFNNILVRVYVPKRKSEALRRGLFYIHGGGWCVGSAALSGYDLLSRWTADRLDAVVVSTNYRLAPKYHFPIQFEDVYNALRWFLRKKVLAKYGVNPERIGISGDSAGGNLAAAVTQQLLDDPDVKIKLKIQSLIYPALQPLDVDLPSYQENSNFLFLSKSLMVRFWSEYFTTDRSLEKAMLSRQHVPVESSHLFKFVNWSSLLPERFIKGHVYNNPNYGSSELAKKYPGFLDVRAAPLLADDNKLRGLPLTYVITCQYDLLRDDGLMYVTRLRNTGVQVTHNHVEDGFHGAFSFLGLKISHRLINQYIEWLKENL
Method: The inhibitory potential of each extract was assessed using two-point screening (20 and 200 μg/ml) and the activity potential was compared with the control incubates (without inhibitor). Neostigmine was used as the internal standard.
Briefly, a standard 200 μl incubation mixture containing the liver microsomes (0.5 mg/ml protein concentration for efavirenz, 0.25 mg/ml protein concentration rifampicin), efavirenz (15 μM)/rifampicin (48 μM) in 0.2M phosphate buffer (pH 7.4) and the basil herb extract (final concentration […] or 200 μg/ml, dissolved in <1% solvent) was incubated at 37°C for 30 min, in triplicates, with master reaction mix comprising of NADPH (final concentration 1.3 mM) and other reaction co-factors such as glucose-6-phosphate (final concentration 1.3 mM), glucose-6-phosphate dehydrogenase (1 U/ml) and magnesium chloride (final concentration 3.3 mM). About 200 μl of chilled ice-cold acetonitrile spiked with neostigmine (20 μM) was used to terminate each reaction. These samples were then centrifuged at 13,000 rpm for 10 min and the supernatants were subjected to HPLC analysis. The mobile phase comprised of water (A): acetonitrile (B) at a flow rate of 0.7 ml min^-1 for efavirenz samples and water (A): methanol (B) at a flow rate of 0.8 ml min^-1 for rifampicin samples. […] The percentage of remaining activity was expressed as in the equation below (equation 2.8.3.1): […]

[3] = target: T2, rifampicin metabolism (β-esterases); test: Time-dependent inhibition (TDI) IC50 shift assay in HLM, rifampicin metabolism; assay type: in vitro ADME; conditions: human liver microsomes, probe rifampicin
Method: The TDI fold-shift was calculated using the ratio of the IC50s of the normal assay IC50(-) to that of the pre-incubation assay IC50(+), with NADPH (equation 2.8.3.2).
Eq. (2.8.3.2) TDIfold-shift=normal assayIC50(−)/pre-incubation assayIC50(+)
Extracts with fold shifts ≥1.5 were classified positive for TDI ([Nomeir et al., 2004]).

[4] = system: UDP glucuronosyltransferases; design: method as in Zhang et al., 2005; conditions: different assay conditions, bilirubin as the substrate; ref Zhang et al., 2005; read-out: IC50 reported in a previous HLM study; cited from earlier work

For `C[C@@H]1C[C@H]2[C@@H]3CCC4=CC(=O)C=C[C@]4(C)[C@@]3(F)[C@@H](O)C[C@]2(C)[C@@]1(O)C(=O)CO` [Dexamethasone, dexamethasone], the “fold induction of CYP2B6 mRNA expression” value (CYP2B6 mRNA) was “significant fold induction”.

For `O=C1Nc2ccc(Cl)cc2[C@@](C#CC2CC2)(C(F)(F)F)O1` [EFV, efavirenz], the Km (CYP2B6; human, pooled human liver microsomes) was 15.1 µM, the “CLint (Vmax/Km)” value (CYP2B6; pooled HLM) was 0.0240 μl/min/mg protein and the Vmax (CYP2B6; pooled HLM, formation of 8-hydroxy efavirenz) was 0.3576 pmol/min/mg protein.

In the case of `COc1ccc(-c2cc(=O)c3c(O)c(OC)c(OC)cc3o2)cc1O` [Eupatorin, Eupatorin (3′,5-Dihydroxy-4′,6,7-trimethoxyflavone)], the “inhibition of CYP1A2” value (CYP1A2) is given as “inhibits”.

In the case of `CCCCCCCC/C=C\CCCCCCCCNC(=O)/C=C/c1ccc(O)c(O)c1` [N-oleylcaffeamide], the “inhibition of RT-associated activity of ribonuclease H and DNA polymerase” value [1] is listed as “strongly inhibited”.

In the case of `CO[C@H]1/C=C/O[C@@]2(C)Oc3c(C)c(O)c4c(O)c(c(/C=N/N5CCN(C)CC5)c(O)c4c3C2=O)NC(=O)/C(C)=C\C=C\[C@H](C)[C@H](O)[C@@H](C)[C@@H](O)[C@@H](C)[C@H](OC(C)=O)[C@@H]1C` [RIF, rifampicin], the “CLint (Vmax/Km)” value (β-esterases) is reported as 0.0260 μl/min/mg protein, the Vmax (β-esterases; formation of 25-O-desacetyl rifampicin) is reported as 1.2330 pmol/min/mg protein and the Km (β-esterases; formation of 25-O-desacetyl rifampicin, 0–150 μM) is reported as 48.2 µM. The Vmax (β-esterases; formation of 25-O-desacetyl rifampicin, listed as RIFAMPICIN) was 1.233 pmol/min/mg protein.

For `COc1ccc(-c2cc(=O)c3c(O)c(OC)c(OC)cc3o2)cc1` [Salvigenin, Salvigenin (5-Hydroxy-6,7,4′-trimethoxyflavone)], the “inhibition of CYP3A enzymes” value (CYP3A enzymes) is listed as “moderate inhibitor”.

With `Cc1c(O)cccc1C(=O)N[C@@H](CSc1ccccc1)[C@H](O)CN1C[C@H]2CCCC[C@H]2C[C@H]1C(=O)NC(C)(C)C` [nelfinavir, nelfinavir mesylate hydrate] the inhibition at 0.5 h [2] was 30%, the IC50 ([3]; HLM, 30 min pre-incubation with NADPH, rifampicin as substrate, read-out: TDI IC50 against rifampicin metabolism) was 6.39 µM and 3.63 µg/mL and the IC50 shift ([3]; rifampicin pathway, fold shift ≥1.5 classified positive for TDI, read-out: IC50 shift-fold, co-incubation IC50(-) / pre-incubation IC50(+)) was over 1.5. For the same compound, the IC50 [4] was 2.7 µM.

For `CCCCCCCCCCCCCCOC(=O)/C=C/c1ccc(O)c(OC)c1` [tetradecyl ferulate], the IC50 ([1]; read-out: IC50, RNase H inhibition) is given as 12.4 µM.
